8 compounds from US5401769A, “Dibenzofuranyl N-alkyl carbamates” (priority 1994, dated 1995) can be followed below.

Experiment [1] concerns the target T1, cholesterol ester hydrolase (CEH) / cholesterol esterase (EC 3.1.1.13) (Bos taurus, UniProt P30122).
T1 construct: purchased Sigma Company, St. Louis, Mo., U.S.A. C-1892; host or cells: bovine pancreas
T1 sequence (P30122 19-597): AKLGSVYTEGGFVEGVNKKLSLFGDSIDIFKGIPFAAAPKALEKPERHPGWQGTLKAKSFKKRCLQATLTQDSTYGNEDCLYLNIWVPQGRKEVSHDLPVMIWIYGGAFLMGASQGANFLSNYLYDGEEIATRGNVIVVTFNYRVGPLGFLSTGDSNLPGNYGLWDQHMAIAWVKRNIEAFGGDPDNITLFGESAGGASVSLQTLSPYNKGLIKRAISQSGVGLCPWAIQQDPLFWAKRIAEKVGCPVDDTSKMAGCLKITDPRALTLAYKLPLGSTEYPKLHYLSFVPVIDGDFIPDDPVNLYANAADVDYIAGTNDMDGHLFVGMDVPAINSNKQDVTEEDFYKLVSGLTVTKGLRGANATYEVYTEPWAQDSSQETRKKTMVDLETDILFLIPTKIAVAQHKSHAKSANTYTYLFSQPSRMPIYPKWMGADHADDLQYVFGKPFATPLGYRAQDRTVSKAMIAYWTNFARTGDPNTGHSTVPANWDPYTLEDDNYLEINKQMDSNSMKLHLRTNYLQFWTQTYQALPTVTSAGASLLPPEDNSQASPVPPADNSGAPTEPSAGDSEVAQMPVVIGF
Briefly: In vitro inhibition of cholesteryl ester formation by cholesterol esterase (CEH). The experiment is classed as biochemical, bovine. From the text:
(§1) The in vitro and in vivo standard experimental test procedures used to establish the ability of the anticholesterolemic compounds of this invention to prevent cholesteryl ester formation and to inhibit cholesterol absorption, are given below and the biological results are presented in Table I.
In Vitro Test Procedure: The ability of the compounds of this invention to inhibit the formation of cholesteryl esters and thereby interfere with and prevent assimilation of cholesterol into the lymphatic system and ultimately the blood stream was established by incubating the compounds at 37° C. with a mixture of cholesterol and oleic acid in the presence of buffered cholesterol esterase [(EC 3.1.1.13) Sigma Company, St. Louis, Mo., U.S.A., No. C-1892, from bovine pancreas] and measuring the amount of ester formed, according to the procedure of Field, J. of Lipid Research, 25, 389 (1984).

Experiment [2] deals with absorption of 14C-cholesterol. As to the kind of experiment: In vivo cholesterol absorption, [4-14C] cholesterol, serum radioactivity at six hours, normal rats. The settings on record: 10 mg/kg oral, 6 hr, normal rat, percent decrease compared to control. The protocol:
as §1
In Vivo Assay: The in vivo cholesterol absorption studies were conducted in normal rats by oral administration of the compound being tested in propylene glycol and olive oil followed by oral administration of [4-^14 C] cholesterol in propylene glycol and olive oil, otherwise following the procedure of Cayen et al., J. Lipid Res. 20, 162 (1979). The serum radioactivity was measured at six hours after dosing. The results of this study are reported in the following Table I as percent decrease compared to control.

For `CCCCNC(=O)Oc1ccc2oc3ccccc3c2c1` [Example 1, Butylcarbamic acid 2-dibenzofuranyl ester], inhibition in experiment [1] was half-maximal at 25 µM (IC50). That is a double-digit micromolar value. For `CC(C)CCCC(C)NC(=O)Oc1ccc2oc3ccccc3c2c1` (centres unmarked) [Example 2, (1.5-Dimethylhexyl) carbamic acid 2-dibenzofuranyl ester], the “In Vivo Results Effect on Absorption of 14C-chol, % Decrease” value (from here on “In Vivo Results Effect … % Decrease”) in experiment [2] is recorded as 33%. The compound further had an IC50 in experiment [1] of 3 µM. The corresponding values for `CCCCCCNC(=O)Oc1ccc2oc3ccccc3c2c1` [Example 3, Hexylcarbamic acid 2-dibenzofuranyl ester] are 37% and 9.3 µM. Regarding `O=C(NCCCCc1ccccc1)Oc1ccc2oc3ccccc3c2c1` [Example 4, (4-Phenylbutyl)carbamic acid 2-dibenzofuranyl ester], the “In Vivo Results Effect … % Decrease” value in experiment [2] is reported as 44%. Also, in experiment [1], inhibition was half-maximal at 68 µM (IC50). Regarding `CNC(=O)Oc1ccc2oc3ccccc3c2c1` [Example 5, Methylcarbamic acid 2-dibenzofuranyl ester], the IC50 in experiment [1] is 42 µM. On to `O=C(NCC1CCCCC1)Oc1ccc2oc3ccccc3c2c1` [Example 6, (Cyclohexylmethyl)carbamic acid 2-dibenzofuranyl ester], for which the “In Vivo Results Effect … % Decrease” value in experiment [2] came out at 43%. Besides, the IC50 in experiment [1] amounted to 13.8 µM. In the case of `CCCCCCCCCCCCNC(=O)Oc1ccc2oc3ccccc3c2c1` [Example 7, Dodecylcarbamic acid 2-dibenzofuranyl ester], the “In Vivo Results Effect … % Decrease” value in experiment [2] was found to be 13%. This compound gave an IC25 in experiment [1] (IC25 printed in the IC50 column, 37° C., cholesterol and oleic acid, cholesterol esterase from bovine pancreas) of 7.2 µM.

Take `CCNC(=O)Oc1ccc2oc3ccccc3c2c1` [Example 8, Ethylcarbamic acid 2-dibenzofuranyl ester]: the “In Vivo Results Effect … % Decrease” value in experiment [2] is 18%. The compound also displayed an IC50 in experiment [1] of 18.9 µM.

Usually IC50 stands for the midpoint of a concentration-inhibition curve. Lower therefore signals inhibition by little substance. In general, IC25 refers to the concentration at which the effect reaches the 25% level. High values mean a need for much substance, low ones an effect from little substance.
